The values below come from ChEMBL document CHEMBL5543153, “Discovery of a Potent Dual Son of Sevenless 1 (SOS1) and Epidermal Growth Factor Receptor (EGFR) Inhibitor for the Treatment of Prostate Cancer” (J Med Chem, 2024).

Assay [1] has as its system PC-3. As to the kind of experiment: cells. It is filed as functional, cell-based. The conditions noted are these: Homo sapiens, PC-3, 72 h.
Description: Antiproliferative activity against human PC-3 cells assessed as inhibition of cell growth incubated for 72 hrs by MTT assay
Assay [2] relates to PC-3. In words: cells. The conditions noted are these: Homo sapiens, PC-3, 72 h.
Description: Synergistic antiproliferative activity against human PC-3 cells assessed as inhibition of cell growth incubated for 72 hrs in presence of gefitinib by MTT assay
Assay [3] has as its target T1, Son of sevenless homolog 1 (Homo sapiens) (UniProt Q07889).
T1 sequence (whole entry): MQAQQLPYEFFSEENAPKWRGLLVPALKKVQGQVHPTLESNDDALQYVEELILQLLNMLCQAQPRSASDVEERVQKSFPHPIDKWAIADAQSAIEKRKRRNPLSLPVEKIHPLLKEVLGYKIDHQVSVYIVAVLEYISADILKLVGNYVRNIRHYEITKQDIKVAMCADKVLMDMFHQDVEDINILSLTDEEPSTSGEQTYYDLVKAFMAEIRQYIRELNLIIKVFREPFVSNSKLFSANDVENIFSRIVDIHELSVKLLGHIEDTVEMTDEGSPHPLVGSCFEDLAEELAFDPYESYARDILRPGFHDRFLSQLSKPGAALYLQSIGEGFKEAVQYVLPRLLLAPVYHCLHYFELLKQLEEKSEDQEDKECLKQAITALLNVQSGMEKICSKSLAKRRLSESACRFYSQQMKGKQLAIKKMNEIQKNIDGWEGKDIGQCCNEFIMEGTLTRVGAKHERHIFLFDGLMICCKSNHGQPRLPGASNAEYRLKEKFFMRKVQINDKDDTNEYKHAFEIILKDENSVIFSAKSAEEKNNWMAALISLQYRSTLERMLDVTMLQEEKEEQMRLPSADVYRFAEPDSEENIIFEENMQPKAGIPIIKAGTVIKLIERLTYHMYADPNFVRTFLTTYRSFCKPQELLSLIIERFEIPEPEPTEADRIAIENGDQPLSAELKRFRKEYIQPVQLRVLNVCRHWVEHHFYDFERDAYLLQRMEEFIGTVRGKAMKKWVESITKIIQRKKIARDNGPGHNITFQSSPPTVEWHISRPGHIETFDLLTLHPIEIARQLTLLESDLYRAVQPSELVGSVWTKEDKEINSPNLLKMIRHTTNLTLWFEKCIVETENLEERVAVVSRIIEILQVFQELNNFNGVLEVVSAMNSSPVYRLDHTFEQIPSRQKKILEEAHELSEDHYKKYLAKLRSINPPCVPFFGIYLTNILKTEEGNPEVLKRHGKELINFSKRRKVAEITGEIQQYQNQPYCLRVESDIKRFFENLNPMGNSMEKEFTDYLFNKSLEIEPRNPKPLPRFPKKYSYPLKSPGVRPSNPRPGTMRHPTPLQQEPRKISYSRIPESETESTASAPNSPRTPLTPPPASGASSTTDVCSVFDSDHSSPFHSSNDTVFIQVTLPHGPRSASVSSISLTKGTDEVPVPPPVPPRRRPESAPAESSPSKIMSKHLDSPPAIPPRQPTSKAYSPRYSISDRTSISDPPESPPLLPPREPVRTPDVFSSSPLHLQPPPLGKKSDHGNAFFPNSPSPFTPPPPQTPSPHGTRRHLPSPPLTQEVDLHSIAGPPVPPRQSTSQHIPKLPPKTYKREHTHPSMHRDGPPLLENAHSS
In words: Inhibition of human recombinant SOS1 at 10 uM relative to control.

In assay [4] the target is Epidermal growth factor receptor (Homo sapiens, UniProt P00533). In words: Inhibition of EGFR (unknown origin) using ultra ULight GT peptide as substrate at 10 uM incubated for 2 hrs relative to control.
Epidermal growth factor receptor, sequence (P00533 whole entry): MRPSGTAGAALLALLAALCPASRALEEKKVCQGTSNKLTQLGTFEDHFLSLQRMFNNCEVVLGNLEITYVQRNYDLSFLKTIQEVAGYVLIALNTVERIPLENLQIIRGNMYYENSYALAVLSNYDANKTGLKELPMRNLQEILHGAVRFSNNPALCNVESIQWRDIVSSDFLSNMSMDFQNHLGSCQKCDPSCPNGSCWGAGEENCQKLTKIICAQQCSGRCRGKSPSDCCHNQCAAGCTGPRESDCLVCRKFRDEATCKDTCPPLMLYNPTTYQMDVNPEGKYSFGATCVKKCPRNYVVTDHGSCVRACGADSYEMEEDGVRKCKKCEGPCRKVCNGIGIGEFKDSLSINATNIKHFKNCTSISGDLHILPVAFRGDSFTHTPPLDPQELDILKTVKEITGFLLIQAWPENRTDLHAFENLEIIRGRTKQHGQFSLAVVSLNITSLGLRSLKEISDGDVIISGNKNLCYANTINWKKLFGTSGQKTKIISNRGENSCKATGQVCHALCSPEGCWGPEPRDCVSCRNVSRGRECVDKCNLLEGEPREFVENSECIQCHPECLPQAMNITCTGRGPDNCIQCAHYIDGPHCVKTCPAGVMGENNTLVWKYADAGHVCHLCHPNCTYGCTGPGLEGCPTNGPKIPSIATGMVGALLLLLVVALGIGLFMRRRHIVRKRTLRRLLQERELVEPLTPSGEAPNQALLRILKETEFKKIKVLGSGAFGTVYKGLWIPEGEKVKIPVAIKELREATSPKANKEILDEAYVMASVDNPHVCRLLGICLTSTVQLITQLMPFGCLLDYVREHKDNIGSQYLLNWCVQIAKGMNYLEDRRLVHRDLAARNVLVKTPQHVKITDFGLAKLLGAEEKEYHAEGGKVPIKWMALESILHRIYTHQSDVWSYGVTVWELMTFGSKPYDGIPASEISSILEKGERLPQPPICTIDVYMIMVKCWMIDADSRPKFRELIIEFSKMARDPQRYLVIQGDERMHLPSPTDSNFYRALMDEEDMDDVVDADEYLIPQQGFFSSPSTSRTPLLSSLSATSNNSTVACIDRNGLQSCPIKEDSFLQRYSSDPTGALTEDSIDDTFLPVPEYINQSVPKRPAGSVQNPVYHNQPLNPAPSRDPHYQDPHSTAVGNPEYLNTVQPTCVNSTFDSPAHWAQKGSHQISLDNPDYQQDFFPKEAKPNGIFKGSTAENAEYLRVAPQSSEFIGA

Calls of active or inactive are those of the source. The rule behind the calls is not given here.

`COc1cc2nc(C)nc(N[C@H](C)c3cc(N)cc(C(F)(F)F)c3)c2cc1O[C@H]1CCOC1`: the 50% inhibitory concentration (IC50) came out at 8.75 µM in assay [1] and 1.37 µM in assay [2].

For the compound `CCc1cc2c(Nc3ccc(Cl)cc3)ncnc2s1`, in assay [3], the inhibition result was “inactive”. This compound yielded an inhibition in assay [4] of 66%.

For the compound `c1ccc2c(Nc3ccc4c(c3)OCO4)ncnc2c1`, the inhibition entry in assay [3] is “inactive”. Moreover, the inhibition in assay [4] amounted to 91%.

In the case of `CCc1cc2c(Nc3ccc(OC)cc3)ncnc2s1`, in assay [3], the inhibition entry was “inactive”. In assay [4], this compound returned an inhibition of 64%.

Turning to `COc1cc2ncnc(NCc3ccc4c(c3)OCO4)c2cc1OC`, the inhibition in assay [3] was 41%; in assay [4] it was 92%.

Take `Cc1sc2ncnc(Nc3ccc(F)cc3)c2c1C`: the inhibition entry in assay [3] is “inactive”. This compound also returned an inhibition in assay [4] of 62%.

Regarding `COc1cc2ncnc(NCc3cccc(Cl)c3)c2cc1OC`, the figures for the inhibition in assay [3] and in assay [4] were 56% and 95%, respectively.

As for `Cc1cccc(Nc2ncnc3c2cnn3C)c1`, in assay [3], the inhibition entry was “inactive”. Besides, the inhibition in assay [4] is 73%.

Take `COc1cc2ncnc(NCc3ccccc3C(F)(F)F)c2cc1OC`: the inhibition in assay [3] stood at 43%; in assay [4] it was 90%.

Regarding `Clc1cccc(Nc2ncnc3sc4c(c23)CCCC4)c1`, the inhibition result in assay [3] is “inactive”. The compound also yielded an inhibition in assay [4] of 74%.

For the compound `c1ccc(Nc2ncnc3sc4c(c23)CCC4)cc1`, the inhibition result in assay [3] is “inactive”. Besides, in assay [4], the inhibition came to 70%.

As to `Clc1ccc(CNc2ncnc3ccccc23)cc1`, the inhibition in assay [3] turned out to be 47%; in assay [4] it was 84%.

A word on the IC50: it is the point on the concentration scale where inhibition reaches its midpoint. Lower therefore signals higher potency. In general, inhibition refers to how much of the control response was suppressed.
